Data: ChEMBL document CHEMBL1136000, “Synthesis of a small library of 3-(carboranylalkyl)thymidines and their biological evaluation as substrates for human thymidine kinases 1 and 2” (J Med Chem, 2002)

target: T1, Thymidine kinase, cytosolic (Homo sapiens) (UniProt P04183)
T1 sequence (whole entry): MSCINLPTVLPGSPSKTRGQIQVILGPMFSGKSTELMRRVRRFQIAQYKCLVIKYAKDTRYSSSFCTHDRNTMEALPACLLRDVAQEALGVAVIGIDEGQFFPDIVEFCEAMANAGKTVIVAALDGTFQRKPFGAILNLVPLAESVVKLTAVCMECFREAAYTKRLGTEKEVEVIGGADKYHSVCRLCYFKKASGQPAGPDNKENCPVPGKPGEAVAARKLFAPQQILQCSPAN
Description: Rate of phosphorylation in the presence of 1% DMSO using Phosphoryl transfer assay in recombinant human cytosolic thymidine kinase 1 at 5 uM

| SMILES | Rate of phosphorylation |
| --- | --- |
| Cc1cn([C@H]2C[C@H](O)[C@@H](CO)O2)c(=O)[nH]c1=O | 1 |
| Cc1cn([C@H]2C[C@H](O)[C@@H](CO)O2)c(=O)n(CCCCCCCC2CC2)c1=O | 0.15 |
| Cc1cn([C@H]2C[C@H](O)[C@@H](CO)O2)c(=O)n(CCCCCCC2CC2)c1=O | 0.31 |
| Cc1cn([C@H]2C[C@H](O)[C@@H](CO)O2)c(=O)n(CCCCCC2CC2)c1=O | 0.57 |
| Cc1cn([C@H]2C[C@H](O)[C@@H](CO)O2)c(=O)n(CCCCC2CC2CC(O)CO)c1=O (some centres undefined) | 0.21 |
| Cc1cn([C@H]2C[C@H](O)[C@@H](CO)O2)c(=O)n(CCCC2CC2CC(O)CO)c1=O (some centres undefined) | 0.43 |
| Cc1cn([C@H]2C[C@H](O)[C@@H](CO)O2)c(=O)n(CCC2CC2)c1=O | 0.42 |
| Cc1cn([C@H]2C[C@H](O)[C@@H](CO)O2)c(=O)n(CCCCCCCC2CC2CC(O)CO)c1=O (some centres undefined) | 0.13 |
| Cc1cn([C@H]2C[C@H](O)[C@@H](CO)O2)c(=O)n(CCCC2CC2)c1=O | 0.27 |
| Cc1cn([C@H]2C[C@H](O)[C@@H](CO)O2)c(=O)n(CCCCCC2CC2CC(O)CO)c1=O (some centres undefined) | 0.39 |
| Cc1cn([C@H]2C[C@H](O)[C@@H](CO)O2)c(=O)n(CCC2CC2CC(O)CO)c1=O (some centres undefined) | 0.49 |
| Cc1cn([C@H]2C[C@H](O)[C@@H](CO)O2)c(=O)n(CCCCCCC2CC2CC(O)CO)c1=O (some centres undefined) | 0.22 |
| Cc1cn([C@H]2C[C@H](O)[C@@H](CO)O2)c(=O)n(CCCCC2CC2)c1=O | 0.17 |

target: Thymidine kinase 2, mitochondrial (Homo sapiens) (UniProt O00142)
Sequence (O00142 whole entry, looked up): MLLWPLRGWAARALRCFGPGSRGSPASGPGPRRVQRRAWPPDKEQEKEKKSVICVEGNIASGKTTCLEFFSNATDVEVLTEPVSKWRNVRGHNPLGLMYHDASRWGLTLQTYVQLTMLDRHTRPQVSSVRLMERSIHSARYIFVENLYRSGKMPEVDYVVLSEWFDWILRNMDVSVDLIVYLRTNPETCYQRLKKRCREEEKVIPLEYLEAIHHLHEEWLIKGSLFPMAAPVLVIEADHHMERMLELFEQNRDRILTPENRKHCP

| SMILES | Rate of phosphorylation |
| --- | --- |
| Cc1cn([C@H]2C[C@H](O)[C@@H](CO)O2)c(=O)[nH]c1=O | 1 |
| Cc1cn([C@H]2C[C@H](O)[C@@H](CO)O2)c(=O)n(CCCCCCCC2CC2)c1=O | < 0.001 |
| Cc1cn([C@H]2C[C@H](O)[C@@H](CO)O2)c(=O)n(CCCCCCC2CC2)c1=O | < 0.001 |
| Cc1cn([C@H]2C[C@H](O)[C@@H](CO)O2)c(=O)n(CCCCCC2CC2)c1=O | 0.001 |
| Cc1cn([C@H]2C[C@H](O)[C@@H](CO)O2)c(=O)n(CCCCC2CC2CC(O)CO)c1=O (some centres undefined) | 0.003 |
| Cc1cn([C@H]2C[C@H](O)[C@@H](CO)O2)c(=O)n(CCCC2CC2CC(O)CO)c1=O (some centres undefined) | 0.004 |
| Cc1cn([C@H]2C[C@H](O)[C@@H](CO)O2)c(=O)n(CCC2CC2)c1=O | 0.002 |
| Cc1cn([C@H]2C[C@H](O)[C@@H](CO)O2)c(=O)n(CCCCCCCC2CC2CC(O)CO)c1=O (some centres undefined) | < 0.001 |
| Cc1cn([C@H]2C[C@H](O)[C@@H](CO)O2)c(=O)n(CCCC2CC2)c1=O | 0.002 |
| Cc1cn([C@H]2C[C@H](O)[C@@H](CO)O2)c(=O)n(CCCCCC2CC2CC(O)CO)c1=O (some centres undefined) | 0.002 |
| Cc1cn([C@H]2C[C@H](O)[C@@H](CO)O2)c(=O)n(CCC2CC2CC(O)CO)c1=O (some centres undefined) | 0.002 |
| Cc1cn([C@H]2C[C@H](O)[C@@H](CO)O2)c(=O)n(CCCCCCC2CC2CC(O)CO)c1=O (some centres undefined) | 0.002 |
| Cc1cn([C@H]2C[C@H](O)[C@@H](CO)O2)c(=O)n(CCCCC2CC2)c1=O | 0.003 |

target: T1, Thymidine kinase, cytosolic (Homo sapiens); remark: another data set of the same source
Description: Rate of phosphorylation in the presence of 1% DMSO using Phosphoryl transfer assay in recombinant human cytosolic thymidine kinase 1 at 10 uM

| SMILES | Rate of phosphorylation |
| --- | --- |
| Cc1cn([C@H]2C[C@H](O)[C@@H](CO)O2)c(=O)[nH]c1=O | 1 |
| Cc1cn([C@H]2C[C@H](O)[C@@H](CO)O2)c(=O)n(CCCCCCCC2CC2)c1=O | 0.11 |
| Cc1cn([C@H]2C[C@H](O)[C@@H](CO)O2)c(=O)n(CCCCCCC2CC2)c1=O | 0.28 |
| Cc1cn([C@H]2C[C@H](O)[C@@H](CO)O2)c(=O)n(CCCCCC2CC2)c1=O | 0.41 |
| Cc1cn([C@H]2C[C@H](O)[C@@H](CO)O2)c(=O)n(CCCCC2CC2CC(O)CO)c1=O (some centres undefined) | 0.21 |
| Cc1cn([C@H]2C[C@H](O)[C@@H](CO)O2)c(=O)n(CCCC2CC2CC(O)CO)c1=O (some centres undefined) | 0.4 |
| Cc1cn([C@H]2C[C@H](O)[C@@H](CO)O2)c(=O)n(CCC2CC2)c1=O | 0.39 |
| Cc1cn([C@H]2C[C@H](O)[C@@H](CO)O2)c(=O)n(CCCCCCCC2CC2CC(O)CO)c1=O (some centres undefined) | 0.13 |
| Cc1cn([C@H]2C[C@H](O)[C@@H](CO)O2)c(=O)n(CCCC2CC2)c1=O | 0.3 |
| Cc1cn([C@H]2C[C@H](O)[C@@H](CO)O2)c(=O)n(CCCCCC2CC2CC(O)CO)c1=O (some centres undefined) | 0.41 |
| Cc1cn([C@H]2C[C@H](O)[C@@H](CO)O2)c(=O)n(CCC2CC2CC(O)CO)c1=O (some centres undefined) | 0.45 |
| Cc1cn([C@H]2C[C@H](O)[C@@H](CO)O2)c(=O)n(CCCCCCC2CC2CC(O)CO)c1=O (some centres undefined) | 0.32 |
| Cc1cn([C@H]2C[C@H](O)[C@@H](CO)O2)c(=O)n(CCCCC2CC2)c1=O | 0.13 |
